Reference: US7759101B2, “Ginsenoside glycosidases hydrolyzing ginsenoside sugar moieties and uses thereof” (priority 2000, dated 2010)

What was measured:
[1] = test system: ginsenoside glycosidases from A. niger; test: Hydrolysis of ginsenosides with crude ginsenoside glycosidases from A. niger, products measured by TLC; format: biochemical, Aspergillus niger
Summary of the method: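 Crude enzyme from A. niger culture (1% ginseng extract, 3% wheat bran, 30° C., 54 h), 65% ammonium sulfate precipitate dialysed into 0.01 M acetate pH 5. Ginsenosides (100 mg; Rg3 10 mg) in 10 ml buffer plus 10 ml enzyme, 30° C., 18 h; stopped with n-butanol, products analysed by silica TLC.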

[2] = test system: Cellobiose-producing enzyme from Clostridium; test: Comparison: hydrolysis of ginsenosides with cellobiose-producing enzyme; format: biochemical, Clostridium thermocopiriae; conditions: substrate 0.5%, pH 5.0, 30° C., 18 hours
Text: To observe the differences between the ginsenoside glycosidases of the invention and known exo-cellulases, the ginsenoside glycosidases of the invention were compared with cellulose β-glucosidase (E.C. 3.2.1.21) in two reactions with 0.5% ginsenosides Rb1 or Rd as substrate.
An exo-cellulase from Clostridium thermocopiriae (cellobiose-producing enzyme) cleaves cellodextrin to give cellobiose, but cannot hydrolyze diglucosidic bond at C-3 of ginsenoside Rd. So it is completely different from ginsenoside glycosidase III. Therefore, the ginsenoside glycosidases of the invention are enzymes different from known cellulose β-glucosidases and cellobiose-producing enzymes.

Enzymes from Malts = test: Hydrolysis of Rb1 with enzymes from malts; format: biochemical, malt; conditions: 1% Rb1 solution, pH 5, 20% ethanol, 40° C., 20 hours
Method: 200 g of malt was ground and added to 1000 ml of 0.01 M acetate buffer pH 5 for extraction under room temperature for two hours. The mixture was filtrated. To the supernatant 3 volumes of ethanol was added and stand overnight. Precipitates were collected to which 50 ml of 0.01 M acetate buffer pH 5 was added. Insolubles were removed and enzyme solution was obtained. 10 ml of the enzyme solution was allowed to react with 10 ml of 1% Rb1 solution (in 0.01 M acetate buffer pH 5 containing 20% ethanol) at 40° C. for 20 hours. The product was detected by TLC. As a result, more than 95% Rb1 was converted to Rd, F2, C-K and Rg3 and the like.

[3] = Rb1 0.5%, 20° C., pH 5.0, 18 hours
[4] = Rb1 0.5%, 30° C., pH 5.0, 18 hours
[5] = Rb1 0.5%, 40° C., pH 5.0, 18 hours
[6] = Rb1 0.5%, 50° C., pH 5.0, 18 hours
[7] = Rb1 0.5%, 60° C., pH 5.0, 18 hours
[8] = Rb1 0.5%, 70° C., pH 5.0, 18 hours
[9] = Rb1 0.5%, Ca^++ 50 mM, pH 5.0, 30°C.
[10] = Rb1 0.5%, Ca^++ 100 mM, pH 5.0, 30°C.
[11] = Rb1 0.5%, Cu^++ 100 mM, pH 5.0, 30°C.
[12] = Rb1 0.5%, Mg^++ 50 mM, pH 5.0, 30°C.
[13] = Rb1 0.5%, Mg^++ 100 mM, pH 5.0, 30°C.
[14] = Rb1 0.5%, No ion, pH 5.0, 30°C.
[15] = Rb1 0.5%, Pb^++ 100 mM, pH 5.0, 30°C.
[16] = Rb1 0.5%, pH 3.0, 30° C., 18 hours
[17] = Rb1 0.5%, pH 4.0, 30° C., 18 hours
[18] = Rb1 0.5%, pH 5.0, 30° C., 18 hours
[19] = Rb1 0.5%, pH 6.0, 30° C., 18 hours
[20] = Rb1 0.5%, pH 7.0, 30° C., 18 hours
[21] = Rb1 0.5%, pH 8.0, 30° C., 18 hours
[22] = Rb1 0.5%, reaction time 1 hours, pH 5, 30° C.
[23] = Rb1 0.5%, reaction time 4 hours, pH 5, 30° C.
[24] = Rb1 0.5%, reaction time 8 hours, pH 5, 30° C.
[25] = Rb1 0.5%, reaction time 12 hours, pH 5, 30° C.
[26] = Rb1 0.5%, reaction time 18 hours, pH 5, 30° C.
[27] = Rb1 0.5%, reaction time 24 hours, pH 5, 30° C.
[28] = Rb1 0.5%, reaction time 30 hours, pH 5, 30° C.
[29] = Rb1 0.5%, reaction time 36 hours, pH 5, 30° C.

Structure (SMILES): CC(C)=CCC[C@](C)(O[C@@H]1O[C@H](CO[C@@H]2O[C@H](CO)[C@@H](O)[C@H](O)[C@H]2O)[C@@H](O)[C@H](O)[C@H]1O)[C@H]1CC[C@]2(C)[C@@H]1[C@H](O)C[C@@H]1[C@@]3(C)CC[C@H](O[C@@H]4O[C@H](CO)[C@@H](O)[C@H](O)[C@H]4O[C@@H]4O[C@H](CO)[C@@H](O)[C@H](O)[C@H]4O)C(C)(C)[C@@H]3CC[C@]12C [Rb1, ginsenoside Rb1]
- Percentage of C—K in the reaction product [1, 3]: 10%
- Percentage of F2 in the reaction product [1, 3]: 15%
- Percentage of Rb1 in the reaction product [1, 3]: 25%
- Percentage of Rd in the reaction product [1, 3]: 50%
- Percentage of C—K in the reaction product [1, 4]: 16%
- Percentage of F2 in the reaction product [1, 4]: 63%
- Percentage of Rb1 in the reaction product [1, 4]: 1%
- Percentage of Rd in the reaction product [1, 4]: 10%
- Percentage of Rh2 in the reaction product [1, 4]: 5%
- Percentage of aglycone in the reaction product [1, 4]: 5%
- Percentage of C—K in the reaction product [1, 5]: 34%
- Percentage of F2 in the reaction product [1, 5]: 50%
- Percentage of Rd in the reaction product [1, 5]: 5%
- Percentage of Rh2 in the reaction product [1, 5]: 6%
- Percentage of aglycone in the reaction product [1, 5]: 5%
- Percentage of C—K in the reaction product [1, 6]: 42%
- Percentage of F2 in the reaction product [1, 6]: 40%
- Percentage of Rd in the reaction product [1, 6]: 5%
- Percentage of Rh2 in the reaction product [1, 6]: 4%
- Percentage of aglycone in the reaction product [1, 6]: 4%
- Percentage of C—K in the reaction product [1, 7]: 6%
- Percentage of F2 in the reaction product [1, 7]: 10%
- Percentage of Rb1 in the reaction product [1, 7]: 30%
- Percentage of Rd in the reaction product [1, 7]: 50%
- Percentage of Rh2 in the reaction product [1, 7]: 2%
- Percentage of aglycone in the reaction product [1, 7]: 2%
- Percentage of Rb1 in the reaction product [1, 8]: 82%
- Percentage of Rd in the reaction product [1, 8]: 18%
- Percentage of C—K in the reaction product [1, 9]: 20%
- Percentage of F2 in the reaction product [1, 9]: 65%
- Percentage of Rd in the reaction product [1, 9]: 4%
- Percentage of Rh2 in the reaction product [1, 9]: 7%
- Percentage of aglycone in the reaction product [1, 9]: 4%
- Percentage of C—K in the reaction product [1, 10]: 21%
- Percentage of F2 in the reaction product [1, 10]: 67%
- Percentage of Rh2 in the reaction product [1, 10]: 7%
- Percentage of aglycone in the reaction product [1, 10]: 5%
- Percentage of C—K in the reaction product [1, 11]: 10%
- Percentage of F2 in the reaction product [1, 11]: 30%
- Percentage of Rb1 in the reaction product [1, 11]: 30%
- Percentage of Rd in the reaction product [1, 11]: 30%
- Percentage of C—K in the reaction product [1, 12]: 17%
- Percentage of F2 in the reaction product [1, 12]: 65%
- Percentage of Rd in the reaction product [1, 12]: 6%
- Percentage of Rh2 in the reaction product [1, 12]: 7%
- Percentage of aglycone in the reaction product [1, 12]: 5%
- Percentage of C—K in the reaction product [1, 13]: 21%
- Percentage of F2 in the reaction product [1, 13]: 67%
- Percentage of Rh2 in the reaction product [1, 13]: 8%
- Percentage of aglycone in the reaction product [1, 13]: 4%
- Percentage of C—K in the reaction product [1, 14]: 16%
- Percentage of F2 in the reaction product [1, 14]: 63%
- Percentage of Rd in the reaction product [1, 14]: 10%
- Percentage of Rh2 in the reaction product [1, 14]: 5%
- Percentage of aglycone in the reaction product [1, 14]: 2%
- Percentage of C—K in the reaction product [1, 15]: 1%
- Percentage of F2 in the reaction product [1, 15]: 9%
- Percentage of Rb1 in the reaction product [1, 15]: 70%
- Percentage of Rd in the reaction product [1, 15]: 20%
- Percentage of C—K in the reaction product [1, 16]: 40%
- Percentage of F2 in the reaction product [1, 16]: 30%
- Percentage of Rb1 in the reaction product [1, 16]: 2%
- Percentage of Rd in the reaction product [1, 16]: 20%
- Percentage of Rh2 in the reaction product [1, 16]: 8%
- Percentage of aglycone in the reaction product [1, 16]: 10%
- Percentage of C—K in the reaction product [1, 17]: 39%
- Percentage of F2 in the reaction product [1, 17]: 43%
- Percentage of Rb1 in the reaction product [1, 17]: 1%
- Percentage of Rd in the reaction product [1, 17]: 10%
- Percentage of Rh2 in the reaction product [1, 17]: 7%
- Percentage of aglycone in the reaction product [1, 17]: 5%
- Percentage of C—K in the reaction product [1, 18]: 16%
- Percentage of F2 in the reaction product [1, 18]: 63%
- Percentage of Rd in the reaction product [1, 18]: 10%
- Percentage of Rh2 in the reaction product [1, 18]: 5%
- Percentage of aglycone in the reaction product [1, 18]: 5%
- Percentage of C—K in the reaction product [1, 19]: 21%
- Percentage of F2 in the reaction product [1, 19]: 56%
- Percentage of Rd in the reaction product [1, 19]: 15%
- Percentage of Rh2 in the reaction product [1, 19]: 4%
- Percentage of aglycone in the reaction product [1, 19]: 4%
- Percentage of C—K in the reaction product [1, 20]: 6%
- Percentage of F2 in the reaction product [1, 20]: 41%
- Percentage of Rb1 in the reaction product [1, 20]: 10%
- Percentage of Rd in the reaction product [1, 20]: 41%
- Percentage of Rg3 in the reaction product [1, 20]: 2%
- Percentage of Rh2 in the reaction product [1, 20]: 2%
- Percentage of aglycone in the reaction product [1, 20]: 2%
- Percentage of C—K in the reaction product [1, 21]: 6%
- Percentage of F2 in the reaction product [1, 21]: 36%
- Percentage of Rb1 in the reaction product [1, 21]: 20%
- Percentage of Rd in the reaction product [1, 21]: 45%
- Percentage of Rg3 in the reaction product [1, 21]: 3%
- Percentage of Rb1 in the reaction product [1, 22]: 38%
- Percentage of Rd in the reaction product [1, 22]: 62%
- Percentage of F2 in the reaction product [1, 23]: 10%
- Percentage of Rb1 in the reaction product [1, 23]: 12%
- Percentage of Rd in the reaction product [1, 23]: 72%
- Percentage of C—K in the reaction product [1, 24]: 2%
- Percentage of F2 in the reaction product [1, 24]: 38%
- Percentage of Rb1 in the reaction product [1, 24]: 8%
- Percentage of Rd in the reaction product [1, 24]: 51%
- Percentage of C—K in the reaction product [1, 25]: 6%
- Percentage of F2 in the reaction product [1, 25]: 54%
- Percentage of Rb1 in the reaction product [1, 25]: 6%
- Percentage of Rd in the reaction product [1, 25]: 30%
- Percentage of Rh2 in the reaction product [1, 25]: 2%
- Percentage of aglycone in the reaction product [1, 25]: 2%
- Percentage of C—K in the reaction product [1, 26]: 16%
- Percentage of F2 in the reaction product [1, 26]: 63%
- Percentage of Rd in the reaction product [1, 26]: 10%
- Percentage of Rh2 in the reaction product [1, 26]: 5%
- Percentage of aglycone in the reaction product [1, 26]: 5%
- Percentage of C—K in the reaction product [1, 27]: 24%
- Percentage of F2 in the reaction product [1, 27]: 60%
- Percentage of Rd in the reaction product [1, 27]: 8%
- Percentage of Rh2 in the reaction product [1, 27]: 4%
- Percentage of aglycone in the reaction product [1, 27]: 4%
- Percentage of C—K in the reaction product [1, 28]: 44%
- Percentage of F2 in the reaction product [1, 28]: 40%
- Percentage of Rd in the reaction product [1, 28]: 5%
- Percentage of Rg3 in the reaction product [1, 28]: 2%
- Percentage of Rh2 in the reaction product [1, 28]: 6%
- Percentage of aglycone in the reaction product [1, 28]: 3%
- Percentage of C—K in the reaction product [1, 29]: 52%
- Percentage of F2 in the reaction product [1, 29]: 30%
- Percentage of Rd in the reaction product [1, 29]: 2%
- Percentage of Rg3 in the reaction product [1, 29]: 3%
- Percentage of Rh2 in the reaction product [1, 29]: 7%
- Percentage of aglycone in the reaction product [1, 29]: 6%
- Percentage of C—K in the reaction product ([1]; pH 5, 30° C., 18 hours): 16%
- Percentage of F2 in the reaction product ([1]; pH 5, 30° C., 18 hours): 63%
- Percentage of Rb1 in the reaction product ([1]; pH 5, 30° C., 18 hours): 1%
- Percentage of Rd in the reaction product ([1]; pH 5, 30° C., 18 hours): 10%
- Percentage of Rh2 in the reaction product ([1]; pH 5, 30° C., 18 hours): 5%
- Percentage of aglycone in the reaction product ([1]; pH 5, 30° C., 18 hours): 5%
- Percentage of Rb1 in the reaction product [2]: 100%
- Rb1 converted to Rd, F2, C-K and Rg3 and the like (Enzymes from Malts): more than 95%
